Assay results from US9790252B2, “2-fluorinated riboses and arabinoses and methods of use and synthesis” (CORNELL UNIVERSITY, priority 2009, dated 2017).

Experiments:
[1] = test system: HEK293 cells; assay: Toxicity to HEK293 cells (MTT); format: cell-based; settings: for 100 μM absorbance / 100 μM relative viability: HEK293, 100 μM; for 100 μM absorbance / 100 μM relative viability / 500 μM absorbance / 500 μM relative viability: 12 hours; for 100 μM absorbance / 500 μM absorbance: 570 nm; for 100 μM relative viability / 500 μM relative viability: control = 1; for 500 μM absorbance / 500 μM relative viability: HEK293, 500 μM; for EC50: HEK293, 2′-deoxy-2′-fluoro-nucleosides and nucleotides
Procedure: 1. HEK293 cells were seeded in 96-well plate at a density of 25,000 cells/well the day before the experiment starts;
2. After the cells reach 50˜60% confluency, media was taken out, and 100 μL of fresh media was added to each well;
3. F-derivatives were plated at 100 and 500 μM (in duplicates) concentrations;
4. After 12 hours' incubation at 37° C., the media was taken out, 100 μL of fresh media was added to each well along with 20 μL of 5 mg/mL of MTT solution (in PBS);
5. After 1.5 hours' incubation at 37° C., media was taken out and 100 μL of DMSO was added to each well, the plate was mixed on shaker for 5 mins;
(§1) Absorbance was measured at 570 nm.
(§2) Assay for Determining Toxicity to HEK293 and Neuro2A Cells • 1. HEK293 and Neuro2A cells were seeded in 96-well plate at a density of 25,000 cells/well the day before the experiment starts; • 2. After the cells reach 50˜60% confluency, media was taken out, and 100 μL of fresh media was added to each well; • 3. Cl-derivatives were plated at 100 and 500 μM (in duplicates) concentrations; • 4. After 12 hours' incubation at 37° C., the media was taken out, 100 μL of fresh media was added to each well along with 20 μL of 5 mg/mL of MTT solution (in PBS); • 5. After 2 hours' incubation at 37° C., media was taken out and 100 μL of DMSO was added to each well, the plate was mixed on shaker for 5 mins; • 6. Absorbance was measured at 570 nm.

[2] = test system: Neuro2A cells; assay: Toxicity to Neuro2A cells (MTT); format: cell-based; settings: for 100 μM absorbance / 100 μM relative viability / 500 μM absorbance / 500 μM relative viability: 12 hours; for 100 μM absorbance / 500 μM absorbance: 570 nm; for EC50: 2′-deoxy-2′-fluoro-nucleosides and nucleotides
Procedure: 6. Neuro2A cells were seeded in 96-well plate at a density of 25,000 cells/well the day before the experiment starts;
7. After the cells reach 50˜60% confluency, media was taken out, and 100 μL of fresh media was added to each well;
8. […]
9. After 12 hours' incubation at 37° C., the media was taken out, 100 μL of fresh media was added to each well along with 20 μL of 5 mg/mL of MTT solution (in PBS);
10. After 1.5 hours' incubation at 37° C., media was taken out and 100 μL of DMSO was added to each well, the plate was mixed on shaker for 5 mins;
as §1
as §2, with “Cl-derivatives were plated at 100 and 500 μM (in duplicates) concentrations; • 4.” left out

[3] = molecular target: T1, SirT3 (Homo sapiens, UniProt Q9NTG7); assay: SirT3 activity assay (HPLC of 2′- and 3′-AADPR); format: biochemical
T1 sequence (Q9NTG7 1-399): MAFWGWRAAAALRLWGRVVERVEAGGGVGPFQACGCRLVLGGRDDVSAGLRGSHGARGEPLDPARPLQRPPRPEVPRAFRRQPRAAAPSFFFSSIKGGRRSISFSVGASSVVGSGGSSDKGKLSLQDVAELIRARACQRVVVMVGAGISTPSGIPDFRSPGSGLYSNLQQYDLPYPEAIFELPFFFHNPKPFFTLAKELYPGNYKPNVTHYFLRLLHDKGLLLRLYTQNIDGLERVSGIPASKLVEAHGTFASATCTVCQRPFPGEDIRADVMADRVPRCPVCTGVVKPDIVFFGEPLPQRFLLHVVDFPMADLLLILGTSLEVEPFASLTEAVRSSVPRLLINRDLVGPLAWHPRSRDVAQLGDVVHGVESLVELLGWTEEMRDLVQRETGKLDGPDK
Procedure: (§3) Reactions containing 800 μM NAD^+, 500 μM H3 peptide, and 100 mM phosphate buffer at pH 7.5, with varying concentrations of 2′-deoxy-2′-fluoro-nucleosides or nucleotides were initiated by addition of SirT3 enzyme to a concentration of 13.9 μM. Reactions were incubated for 2 hours at 37° C. and quenched by addition of trifluoroacetic acid to pH 2. After centrifugation to remove precipitates, reactions were injected on HPLC for activity analysis. Production of 2′- and 3′-AADPR were analyzed at 260 nm.
as §3, with “SirT3 Activity Assay: Reactions containing” for “Reactions containing”, “concentrations of 2′-deoxy-2′-chloro-nucleosides were initiated” for “concentrations of 2′-deoxy-2′-fluoro-nucleosides or nucleotides were initiated”

[4] = molecular target: T2, SirT2 (Homo sapiens, UniProt Q8IXJ6); assay: SirT2 activity assay (HPLC of 2′- and 3′-AADPR); format: biochemical; settings: at 1 mM; read-out: SirT2 % inhibited
T2 sequence (Q8IXJ6 1-389): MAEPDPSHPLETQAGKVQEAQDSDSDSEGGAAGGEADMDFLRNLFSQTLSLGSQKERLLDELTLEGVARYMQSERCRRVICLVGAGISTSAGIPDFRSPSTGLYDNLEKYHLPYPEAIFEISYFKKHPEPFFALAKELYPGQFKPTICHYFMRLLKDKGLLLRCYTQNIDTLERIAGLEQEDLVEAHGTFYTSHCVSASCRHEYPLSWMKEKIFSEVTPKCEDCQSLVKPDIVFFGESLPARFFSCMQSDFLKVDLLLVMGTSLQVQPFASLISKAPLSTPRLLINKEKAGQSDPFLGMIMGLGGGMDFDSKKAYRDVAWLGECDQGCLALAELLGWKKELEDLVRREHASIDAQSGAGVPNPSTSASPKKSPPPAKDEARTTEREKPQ
Procedure: as §3, with “SirT2” for “SirT3”, “16.6” for “13.9”, “45 mins” for “2 hours”
SirT2 Activity Assay: Reactions containing 800 μM NAD^+, 500 μM H3 peptide, and 100 mM phosphate buffer at pH 7.5, with varying concentrations of 2′-deoxy-2′-chloro-nucleosides were initiated by addition of SirT2 enzyme to a concentration of 16.6 μM. Reactions were incubated for 45 mins at 37° C. and quenched by addition of trifluoroacetic acid to pH 2. After centrifugation to remove precipitates, reactions were injected on HPLC for activity analysis. Production of 2′- and 3′-AADPR were analyzed at 260 nm.

[5] = MTT 2 hours, chloro-nucleosides
[6] = control = 1, chloro-nucleosides

Row | inhibition at 1000 µM [4] [%] | Compound | 100 μM absorbance ([1]; MTT 1.5 hours) | 100 μM relative viability [1] | 500 μM absorbance ([1]; MTT 1.5 hours) | 500 μM relative viability [1] | EC50 [1] [µM] | 100 μM absorbance ([2]; MTT 1.5 hours) | 100 μM relative viability ([2]; control = 1) | 500 μM absorbance ([2]; MTT 1.5 hours) | 500 μM relative viability ([2]; control = 1) | EC50 [2] [µM] | other results
1 | – | NC(=O)c1ccc[n+]([C@@H]2O[C@H](COP(=O)([O-])OP(=O)(O)OC[C@H]3O[C@@H](n4cnc5c(N)ncnc54)[C@H](O)[C@@H]3O)[C@@H](O)[C@@H]2F)c1 [ara-F-NAD, 2′-deoxy-2′-fluoro-arabino-NAD^+] | 1.523 | 0.6699 | 1.302 | 0.5729 | 1000 | 2.2482 | 0.924 | 1.7012 | 0.699 | 1500 | –
2 | 50 | NC(=O)c1ccc[n+]([C@H]2O[C@H](CO)C(O)[C@@H]2Cl)c1 (stereo partly drawn) [α-ribo-Cl-NR, 1-(2-deoxy-2-chloro-D-ribofuranosyl)-nicotinamide] | – | – | – | – | – | – | – | – | – | – | inhibition at 1000 µM ([3]; at 1 mM, read-out: SirT3 % inhibited): 86%
3 | – | 2′-deoxy-2′-fluoro-ribo-NAD^+ [ribo-F-NAD] | 1.4985 | 0.6592 | 1.384 | 0.6087 | 1020 | 1.6122 | 0.663 | 0.6455 | 0.265 | 350 | –
4 | – | NC(=O)c1ccc[n+]([C@H]2O[C@H](CO)C(O)C2Cl)c1 (stereo partly drawn) [α-ara-Cl-NR, 1-(2′-deoxy-2′-chloro-arabinofuranosyl)-nicotinamide] | – | – | – | – | – | – | – | – | – | – | 100 μM absorbance [1, 5]: 2.09; 100 μM relative viability ([1]; chloro-nucleosides): 0.8601; 500 μM absorbance [1, 5]: 1.77; 500 μM relative viability ([1]; chloro-nucleosides): 0.7284; kills % of HEK293 cells ([1]; HEK293, at 500 μM): kills 30% at 500 μM; 100 μM absorbance [2, 5]: 2.575; 100 μM relative viability [2, 6]: 1.089; 500 μM absorbance [2, 5]: 2.34; 500 μM relative viability [2, 6]: 0.9894; toxicity to Neuro2A (in words) ([2]; at 500 μM): not toxic at 500 μM
5 | 43 | NC(=O)c1ccc[n+]([C@@H]2O[C@H](CO)C(O)[C@@H]2Cl)c1 (stereo partly drawn) [β-ribo-Cl-NR, 1-(2-deoxy-2-chloro-D-ribofuranosyl)-nicotinamide] | – | – | – | – | – | – | – | – | – | – | Ki ([3]; 800 μM NAD+, 500 μM H3 peptide, pH 7.5, 2 hours at 37° C.): 82 µM
